Experimental data published in patent US10239871B2, “Compounds and methods for regulating integrins” (ADHAERE PHARMACEUTICALS, INC., priority 2012, dated 2019).

How the values were obtained:
[1] = tested on: MAPK signaling (pERK, pJNK) in K562 WT cells; experiment: Western blotting of pERK and pJNK in K562 WT cells; type: cell-based, human; conditions: absence of ligand fibrinogen
Procedure: K562 WT cells were incubated with LA1, LA2, LA15 (15 μM), or fibrinogen (200 μg) in serum-free medium for 1 hour at 37° C. Cell lysates were resolved on 4-12% NuPAGE Bis-Tris SDS-PAGE gels using MES running buffer and transferred to a polyvinylidene difluoride (PVDF) membrane (ThermoScientific) using established protocols. Membranes were incubated with a 1:1,000 dilution of the anti-phospho-protein antibodies (anti phospho-p44/42 MAPK (pERK1/2) antibody (Thr202/Tyr204, Cell Signaling) or anti-phospho-SAPK/JNK (pJNK) antibody (Thr183/Tyr185, Cell Signaling #81E11)), or with an antibody against either total ERK1/2 (p44/42 MARK (Erk1/2), Cell Signaling #137F5) or total JNK (SAPK/JNK, Cell Signaling #56G8) and developed according to the manufacturer's instructions (ThermoScientific). Proteins were quantified by densitometry using ImageJ software. […]
Second, an effect of integrin ligation, macro clustering and redistribution in the plasma membrane is the triggering of outside-in intracellular signaling in cells via various MAPKs. […] In FIGS. 6A-6B, immunoblot results from two independent experiments were quantified using ImageJ software and ratio of phosphorylated protein to total protein was determined. Histograms showing this quantitation for each set are also shown. […] In FIGS. 6C-6D, immunoblot results from two independent experiments were quantified and are also shown, as in 6A and 6B.

Cl66 cells = experiment: Cl66 tumor re-growth after irradiation; type: in vivo, mice
Procedure: Data shown are means±SEM. *, P<0.05; **, P<0.001 (by one-way ANOVA). In this experiment, four groups of tumor-bearing animals were used (n=11/group): 1) Treatment with saline alone (red line), 2) Treatment with leukadherins LA1 alone (orange line), 3) Treatment with a single dose of 20 Gy irradiation (two 10%+10% vertices) alone (black line) and 4) Treatment with a single dose of 20 Gy irradiation and then daily LA1 (at −2 hours) (blue line). The syngeneic murine mammary adenocarcinoma cell line Cl66 (moderately metastatic and is related to the highly metastatic 4T1 cell line) was orthotopically introduced in Balb/c animals, by injecting approximately 5×10^5 Cl66 cells under the left mammary fat pad of WT BALB/c mice (approximately 10 weeks old). The tumor size was measured using calipers every other day until the end of the experiment (approximately 5 weeks). 7-days post implantation, the tumors in all animals became palpable, with an average size of ˜100 mm3. At that time, animals in groups 3 and 4 were treated with irradiation. Animals in group 4 received LA1, starting at 2 hours prior to irradiation. […]
A syngeneic xenograft model was used to address the effects of inflammatory cell recruitment on tumor cell re-growth after radio-therapy. […] The tumor size was measured using calipers every other day until the end of the experiment (approximately 5 weeks). […]

[2] = tested on: hematopoiesis and HSC compartment; experiment: Hematopoiesis and HSC compartment after 6 Gy total body irradiation; type: in vivo, mice; conditions: 1 mg/kg i.p. 7 days from 24 hours post 6 Gy TBI; 4 weeks post TBI
Procedure: FIGS. 26A-26C show the analysis of hematopoiesis and HSC compartment in LA1 (Red bars), Vehicle control (Blue bars) treated groups of mice at 4 weeks after 6 Gy of total body irradiation (TBI), showing that LA1 is highly radio-protective and a radio-mitigator. […] Mice were exposed to 6 Gy of TBI (at 0.5 Gy/min), and treated intraperitoneally (i.p.) with LA1 (1 mg/kg) or vehicle alone for 7 consecutive days starting at 24 hours post TBI.

CD11b/CD18 = CD11b/CD18 (Homo sapiens, UniProt P11215); conditions: earlier described [55]; cited from earlier work

Structure (SMILES): O=C(O)c1ccc(-c2ccc(/C=C3\SC(=S)N(Cc4ccccc4)C3=O)o2)cc1 [LA1]
- phosphorylated ERK (pERK) and phosphorylated JNK (pJNK) [1]: did not induce any significant pERK or pJNK
- rate of tumor growth, LA1 alone without irradiation (Cl66 cells; similar to irradiation alone): reduced rate of tumor growth
- rate of tumor growth post-irradiation (Cl66 cells; single dose 20 Gy plus LA1 from -2 hours): significant reduction in the rate of tumor growth post-irradiation
- HSC analysis (BM cellularity, frequency of LKS+ BM cells and LKS+ CD150+ CD48− BM cells) [2]: significant improvement
- affinity for CD11b/CD18 (CD11b/CD18): high-affinity
